Solubility data for one compound are collected here from patent US20180028667A1, “AQUEOUS LIQUID AGENT” (SENJU PHARMACEUTICAL CO., LTD., priority 2014, published 2018).

Structures are written as SMILES.

The series can be described thus: Measurement of solubility of compound A in various solvents (oil components). In kind it is physicochemical. As to conditions: 25° C., stirred 24 hr. As to the method: An excess amount (about 0.2 g) of compound A was added to various solvents (10 g) described in Table 7, and the mixture was stirred at 25° C. for 24 hr. Thereafter, the solvent was filtered off through a 0.45 μm non-aqueous filter while maintaining the temperature. The content of compound A contained in the filtrate was measured in the same manner as in Experimental Example 1, and the solubility of compound A in various solvents was calculated.

For the compound `Cc1cc(C(=O)Nc2cc(Oc3ccc4nc(NC(=O)C5CC5)cn4n3)ccc2C)n(C)n1` [compound A, N-[5-({2-[(cyclopropylcarbonyl)amino]imidazo[1,2-b]pyridazin-6-yl}oxy)-2-methylphenyl]-1,3-dimethyl-1H-pyrazole-5-carboxamide], the solubility runs as follows: (solvent castor oil) 0.311%; (solvent corn oil) 0.008%; (solvent cottonseed oil) 0.008%; (solvent olive oil) 0.009%; (solvent rape seed oil) 0.007%; (solvent soybean oil) 0.007%.
